According to ChEMBL document CHEMBL1201862, “PubChem BioAssay data set” (2004):
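Results reflect a 48-hour exposure of cells in 96-well plates to compound at five concentrations. The concentration for 50% growth inhibition is given as GI50.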 Activity calls are given as the source filed them. No stated cut-off is given here; in the data, active = GI50 up to about 1.1 µM and inactive = higher.

Tests used:
Test in all cases: DTP human tumour cell line panel, 48 h
M14 = test system: M14
SNB-19 = test system: SNB-19
T47D = test system: T47D
HCT-116 = test system: HCT-116
SK-OV-3 = test system: SK-OV-3
UACC-257 = test system: UACC-257
OVCAR-4 = test system: OVCAR-4
IGROV-1 = test system: IGROV-1
ACHN = test system: ACHN
MDA-N = test system: MDA-N
HOP-62 = test system: HOP-62
KM12 = test system: KM12
U-251 = test system: U-251
CAKI-1 = test system: CAKI-1
SK-MEL-5 = test system: SK-MEL-5
SF-268 = test system: SF-268
NCI-H522 = test system: NCI-H522
Malme-3M = test system: Malme-3M
SF-539 = test system: SF-539

SMILES	GI50 (M14)	GI50 (SNB-19)	GI50 (T47D)	GI50 (HCT-116)	GI50 (SK-OV-3)	GI50 (UACC-257)	GI50 (OVCAR-4)	GI50 (IGROV-1)	GI50 (ACHN)	GI50 (MDA-N)	GI50 (HOP-62)	GI50 (KM12)	GI50 (U-251)	GI50 (CAKI-1)	GI50 (SK-MEL-5)	GI50 (SF-268)	GI50 (NCI-H522)	GI50 (Malme-3M)	GI50 (SF-539)
CC1(C)O[C@@H](CP(c2cccc3ccccc23)c2cccc3ccccc23)[C@H](CP(c2cccc3ccccc23)c2cccc3ccccc23)O1	> 100 µM (inactive)	> 100 µM (inactive)	> 100 µM (inactive)	> 100 µM (inactive)	> 100 µM (inactive)	> 100 µM (inactive)	> 100 µM (inactive)	> 100 µM (inactive)	> 100 µM (inactive)	> 100 µM (inactive)	> 100 µM (inactive)	> 100 µM (inactive)	> 100 µM (inactive)	> 100 µM (inactive)	> 100 µM (inactive)	> 100 µM (inactive)	> 100 µM (inactive)	–	–
OC1=C2c3ccccc3NC2Oc2cc(F)ccc21 (stereo not given)	17.3 µM (inactive)	20.3 µM (inactive)	19.2 µM (inactive)	14 µM (inactive)	12.7 µM (inactive)	19 µM (inactive)	16.6 µM (inactive)	21.7 µM (inactive)	18.7 µM (inactive)	15.8 µM (inactive)	17.7 µM (inactive)	15.4 µM (inactive)	15.7 µM (inactive)	19.5 µM (inactive)	15 µM (inactive)	18.2 µM (inactive)	17.7 µM (inactive)	20.4 µM (inactive)	–
NCCOc1cccc(C2(N3CCCCC3)CCCCC2)c1	16.4 µM (inactive)	> 100 µM (inactive)	52.6 µM (inactive)	16.2 µM (inactive)	> 100 µM (inactive)	19 µM (inactive)	35.9 µM (inactive)	–	> 100 µM (inactive)	18.5 µM (inactive)	92.5 µM (inactive)	45.3 µM (inactive)	18.2 µM (inactive)	94 µM (inactive)	16.5 µM (inactive)	25.6 µM (inactive)	19.1 µM (inactive)	20.1 µM (inactive)	17.5 µM (inactive)
O=C(NNc1cn[nH]c(=O)c1Cl)/C(=C/c1ccc2c(c1)OCO2)NC(=O)c1ccccc1	61.8 µM (inactive)	76.2 µM (inactive)	73.5 µM (inactive)	34.8 µM (inactive)	> 100 µM (inactive)	> 100 µM (inactive)	32.8 µM (inactive)	23.6 µM (inactive)	59.8 µM (inactive)	44.7 µM (inactive)	57.1 µM (inactive)	34.7 µM (inactive)	53.5 µM (inactive)	22.9 µM (inactive)	40.8 µM (inactive)	–	–	–	40.7 µM (inactive)
CN(C)C(n1cc2c(c1)-c1ccc(Cl)cc1C(c1ccccc1F)=NC2)n1cc2c(c1)-c1ccc(Cl)cc1C(c1ccccc1F)=NC2	93.1 µM (inactive)	> 100 µM (inactive)	38.4 µM (inactive)	61.1 µM (inactive)	> 100 µM (inactive)	> 100 µM (inactive)	> 100 µM (inactive)	> 100 µM (inactive)	63.2 µM (inactive)	18.4 µM (inactive)	> 100 µM (inactive)	–	> 100 µM (inactive)	> 100 µM (inactive)	> 100 µM (inactive)	36 µM (inactive)	81.8 µM (inactive)	> 100 µM (inactive)	> 100 µM (inactive)
O=C(Nc1nnc(-c2ccccc2)o1)C(SC(=S)N1CCCC1)c1ccccc1 (stereo not given)	23.6 µM (inactive)	38.5 µM (inactive)	46.8 µM (inactive)	25.1 µM (inactive)	36.8 µM (inactive)	37 µM (inactive)	38.7 µM (inactive)	22.9 µM (inactive)	26.2 µM (inactive)	32.1 µM (inactive)	24.8 µM (inactive)	32.8 µM (inactive)	23.3 µM (inactive)	29.9 µM (inactive)	17.8 µM (inactive)	–	22.3 µM (inactive)	45 µM (inactive)	34.2 µM (inactive)
COc1cc(C#CC(=O)OC/C=C/c2ccc3c(c2)OCO3)cc(OC)c1OC	24 µM (inactive)	42.9 µM (inactive)	59.6 µM (inactive)	22.7 µM (inactive)	27.6 µM (inactive)	26.8 µM (inactive)	59.7 µM (inactive)	–	29.2 µM (inactive)	18.5 µM (inactive)	24 µM (inactive)	30.4 µM (inactive)	29.4 µM (inactive)	22.1 µM (inactive)	17.5 µM (inactive)	19.5 µM (inactive)	–	20.7 µM (inactive)	20.7 µM (inactive)
O=C(O)C1CC(c2ccc(F)cc2)=Nc2ccc(F)cc2S1 (stereo not given)	68.2 µM (inactive)	> 100 µM (inactive)	> 100 µM (inactive)	> 100 µM (inactive)	> 100 µM (inactive)	> 100 µM (inactive)	> 100 µM (inactive)	> 100 µM (inactive)	> 100 µM (inactive)	> 100 µM (inactive)	–	> 100 µM (inactive)	> 10 µM (inactive)	> 100 µM (inactive)	> 100 µM (inactive)	> 100 µM (inactive)	> 100 µM (inactive)	> 100 µM (inactive)	92.3 µM (inactive)
O=C(Nc1ccc2nc(-c3ccccc3)cn2c1)Oc1ccccc1	39.2 µM (inactive)	73.6 µM (inactive)	19.1 µM (inactive)	45.9 µM (inactive)	> 100 µM (inactive)	36.1 µM (inactive)	78.3 µM (inactive)	57.3 µM (inactive)	> 100 µM (inactive)	14 µM (inactive)	> 100 µM (inactive)	24.9 µM (inactive)	52.7 µM (inactive)	97.9 µM (inactive)	59.7 µM (inactive)	> 100 µM (inactive)	20.2 µM (inactive)	98.2 µM (inactive)	–
CC(Br)CN(CC(C)Br)c1ccc2c(c1)Cc1ccccc1-2 (stereo not given)	11.6 µM (inactive)	13.6 µM (inactive)	10.1 µM (inactive)	11.6 µM (inactive)	16 µM (inactive)	14.1 µM (inactive)	13.1 µM (inactive)	6.93 µM (inactive)	6.64 µM (inactive)	15.2 µM (inactive)	11.7 µM (inactive)	16.5 µM (inactive)	10.7 µM (inactive)	9.2 µM (inactive)	12.7 µM (inactive)	10.2 µM (inactive)	6.9 µM (inactive)	11.7 µM (inactive)	–
O=C1C=CC2(O[C@H](c3ccccc3)[C@@H](c3ccccc3)O2)C(SC(=O)c2ccccc2)C1 (stereo not given in full)	1.33 µM (inactive)	2.19 µM (inactive)	2.06 µM (inactive)	0.355 µM (active)	2.32 µM (inactive)	1.79 µM (inactive)	1.63 µM (inactive)	1.52 µM (inactive)	1.37 µM (inactive)	1.43 µM (inactive)	1.38 µM (inactive)	2.27 µM (inactive)	1.56 µM (inactive)	1.67 µM (inactive)	1.47 µM (inactive)	1.3 µM (inactive)	–	2.27 µM (inactive)	1.75 µM (inactive)
Cc1ccc2c(c1)C(O)(c1ccccc1)CCS2 (stereo not given)	25.4 µM (inactive)	59.6 µM (inactive)	28.2 µM (inactive)	20.8 µM (inactive)	> 100 µM (inactive)	42 µM (inactive)	43.4 µM (inactive)	20.6 µM (inactive)	27.2 µM (inactive)	–	33.7 µM (inactive)	22.6 µM (inactive)	21.7 µM (inactive)	22 µM (inactive)	29 µM (inactive)	38.4 µM (inactive)	19.7 µM (inactive)	32.9 µM (inactive)	20.2 µM (inactive)
CCC(=N\NC(N)=S)/C(C)=N/O	> 100 µM (inactive)	> 100 µM (inactive)	> 100 µM (inactive)	> 100 µM (inactive)	> 100 µM (inactive)	> 100 µM (inactive)	> 100 µM (inactive)	> 100 µM (inactive)	> 100 µM (inactive)	> 100 µM (inactive)	> 100 µM (inactive)	> 100 µM (inactive)	> 100 µM (inactive)	> 100 µM (inactive)	> 100 µM (inactive)	> 100 µM (inactive)	–	> 100 µM (inactive)	> 100 µM (inactive)
COc1ccc(P2(=S)Oc3ccccc3-c3ccccc3O2)cc1	0.574 µM (active)	0.521 µM (active)	36.1 µM (inactive)	0.524 µM (active)	–	1.35 µM (inactive)	4.25 µM (inactive)	0.394 µM (active)	0.728 µM (active)	0.147 µM (active)	0.44 µM (active)	0.499 µM (active)	0.429 µM (active)	0.271 µM (active)	0.365 µM (active)	1.5 µM (inactive)	0.193 µM (active)	0.438 µM (active)	0.266 µM (active)
C=C1C(=O)O[C@@H]2[C@H]1CC[C@H](C)[C@]1(O)CCC(=O)[C@@]21C [CORONOPILIN]	–	> 10 µM (inactive)	> 10 µM (inactive)	> 10 µM (inactive)	> 10 µM (inactive)	–	> 10 µM (inactive)	> 10 µM (inactive)	–	> 10 µM (inactive)	> 10 µM (inactive)	> 10 µM (inactive)	> 10 µM (inactive)	–	> 10 µM (inactive)	> 10 µM (inactive)	–	> 10 µM (inactive)	> 10 µM (inactive)
N#Cc1c(SCc2ccccc2)nc(-c2ccccc2)[nH]c1=S	29.9 µM (inactive)	29.9 µM (inactive)	22.4 µM (inactive)	23.7 µM (inactive)	23.4 µM (inactive)	35.2 µM (inactive)	30.9 µM (inactive)	29.9 µM (inactive)	23 µM (inactive)	22.6 µM (inactive)	19.8 µM (inactive)	17.4 µM (inactive)	21.4 µM (inactive)	33.3 µM (inactive)	19.3 µM (inactive)	22 µM (inactive)	–	37.2 µM (inactive)	25.2 µM (inactive)
